In test [1] the test system is calreticulin (ecto-CRT). Briefly: Immunogenic cell death analysis: calreticulin on the surface of tumor cells by flow cytometry. In kind it is cell-based. The conditions noted are these: compared to the control. The method, then: Calreticulin is one of the most important molecules in the immunogenic cell death process. When the calreticulin appears on membranes of tumor cell, a strong signal for phagocytotic cells including dendritic cells may be generated to cause the phagocytotic cells to attack dying tumor cells. This is the most significant “eat me” signal for immune cells. Whether or not immunogenic cell death was induced by the anticancer agents used in the present invention was assessed through the quantitative change of calreticulin expressed on the surface of cancer cells after the treatment with the anticancer agents. Single cells isolated from the tumor were incubated with anti-calreticulin antibody (ratio of 1:50) as a primary antibody at 4° C. for 30 minutes, and then washed 2 times with PBS.

The subject of test [2] is B16F10. The test can be described thus: Tumor growth inhibition, animal model for skin cancer (B16F10). The class given is in vivo,  mice. Conditions: Experimental Example 26; Dunnione 40 mg/kg oral every day from 8th day; Everolimus 0.5 mg/kg oral every day from 8th day. The method, then:
(§1) All mice used in the experiments were raised in a sterile animal room with constant temperature (22° C. to 26° C.) and constant humidity (55% to 60%), acclimatized for 1 week while sufficiently supplying typical solid feed (Samtako Inc., Korea) and water, and then used. All experiments were conducted after obtaining approval from the Institutional Animal Care and Use Committee in accordance with the laboratory animal care and ethics regulations of the Institutional Animal Care and Use Committee of Wonkwang University.
(§2) 7-week-old BALB/c or C57BL/6 mice were used, and subcutaneously inoculated using a 1-mL insulin syringe within 30 minutes after mixing the mouse cancer cells with 0.2 mL of PBS.
(§3) After the cancer cell line was subcutaneously implanted, the administration of drugs was started when the size of the cancer reached 50 to 100 mm^3. The volumes (mm^3) of the tumors, which were generated after the inoculation, were measured at intervals of 3 days using a caliper, calculation was performed using the formula of […], and then the results thereof were compared.
(§4) In addition, sole administration or co-administration of respective drugs was performed according to the administration schedules listed in Tables 4 to 34 below, the tumor volumes were then measured according to the tumor proliferation assessment method described in Example 1.1, the tumor growth inhibition rates (TGI (O)=(Vc−Vt)/Vc×100(%); Vc: tumor volume of control, Vt tumor volume of experimental group) were calculated based the tumor volumes, and the results thereof are shown in the respective tables and FIGS. 1 to 31.

In test [3] the test system is RENCA. Briefly: Tumor growth inhibition, animal model for renal cancer (RENCA). The class given is in vivo, BALB/c mice. The conditions noted are these: Dunnione 40 mg/kg oral every day from 7th day. The method, then: as §1, §2, §3, §4
Test [4] deals with 4T1. The test can be described thus: Tumor growth inhibition, animal model for breast cancer I (4T1). In kind it is in vivo, BALB/c mice. Conditions: Experimental Example 10; Dunnione 40 mg/kg oral every day from 5th day; Anti-CTLA4 antibody 200 μg/head i.p. at intervals of 3 days from 5th day, 4 times; Mitoxantrone 6 mg/kg i.p. once on 5th day. The method, then:
as §1, §2, §3, §4

Test [5] has as its system MC38. Briefly: Tumor growth inhibition, animal model for colorectal cancer I (MC38). The class given is in vivo, C57BL/6 mice. The conditions noted are these: Experimental Example 4; Dunnione 40 mg/kg oral every day from 7th day; Anti-LAG3 antibody 200 μg/head i.p. on 7th, 10th, 14th, 17th days; Oxaliplatin 6 mg/kg i.p. on 7th and 14th days. The method, then: as §1, §2, §3, §4

With `CCN1CCN(Cc2ccc(Nc3ncc(F)c(-c4cc(F)c5nc(C)n(C(C)C)c5c4)n3)nc2)CC1` [Abemaciclib], the “Expression rate (%) of calreticulin on cell surface” value (shortened to “Expression rate (%) of calreticulin”) in test [1] (Breast cancer, EMT6) is recorded as 263%.

For `COc1cccc2c1C(=O)c1c(O)c3c(c(O)c1C2=O)C[C@@](O)(C(=O)CO)C[C@@H]3O[C@H]1C[C@H](N)[C@H](O)[C@H](C)O1` [Adriamycin], the “Expression rate (%) of calreticulin” value in test [1] (Breast cancer, 4T1) was 307%.

`CO[C@H]1C[C@@H]2CC[C@@H](C)[C@@](O)(O2)C(=O)C(=O)N2CCCC[C@H]2C(=O)O[C@H]([C@H](C)C[C@@H]2CC[C@@H](OCCO)[C@H](OC)C2)CC(=O)[C@H](C)/C=C(\C)[C@@H](O)[C@@H](OC)C(=O)[C@H](C)C[C@H](C)/C=C/C=C/C=C/1C` [Everolimus, reference compound]: the “Expression rate (%) of calreticulin” value in test [1] (Liver cancer, Hapa1-6) is listed as 892%; in test [1] (Renal cancer, RENCA), 134%; in test [1] (Skin cancer (melanoma), B16F10), 216%. Besides, the “TGI (%)” value in test [2] was 28.5%; in test [3] (Experimental Example 15, Anti-CTLA4 antibody 200 μg/head i.p. at intervals of 3 days from 7th day, 7 times, Everolimus 250 μg/kg oral every day from 7th day), 72.8%.

Take `O=C1c2c(O)ccc(O)c2C(=O)c2c(NCCNCCO)ccc(NCCNCCO)c21` [Mitoxantrone, reference compound]: in test [1] (Breast cancer, 4T1), the “Expression rate (%) of calreticulin” value was 385%. Also, in test [4], the “TGI (%)” value was 16.3%.

Turning to `O=C1[O][Pt]2([NH][C@@H]3CCCC[C@H]3[NH]2)[O]C1=O` [Oxaliplatin, reference compound], the “TGI (%)” value in test [5] came to 5.6%.

For the molecule `CC(=O)O[C@H]1C(=O)[C@@]2(C)[C@H]([C@H](OC(=O)c3ccccc3)[C@]3(O)C[C@H](OC(=O)[C@H](O)[C@@H](NC(=O)c4ccccc4)c4ccccc4)C(C)=C1C3(C)C)[C@]1(OC(C)=O)CO[C@@H]1C[C@@H]2O` [Paclitaxel], in test [1] (Skin cancer (melanoma), B16F10), the “Expression rate (%) of calreticulin” value was determined as 186%.

On to `CNC(=O)c1cc(Oc2ccc(NC(=O)Nc3ccc(Cl)c(C(F)(F)F)c3)c(F)c2)ccn1` [Regorafenib], for which the “Expression rate (%) of calreticulin” value in test [1] (Colorectal cancer, MC38) is 134%; in test [1] (Skin cancer (melanoma), B16F10), 166%.

For `CNC(=O)c1cc(Oc2ccc(NC(=O)Nc3ccc(Cl)c(C(F)(F)F)c3)cc2)ccn1` [Sorafenib, reference compound], the “Expression rate (%) of calreticulin” value in test [1] (Liver cancer, Hapa1-6) was 435%. Further, in test [3] (Experimental Example 16, Sorafenib 10 mg/kg oral every day from 7th day), the “TGI (%)” value is recorded as 29.4%.

As for `CNC(=O)c1cccc(-c2ccc3c(N4CCOC[C@@H]4C)nc(N4CCOC[C@@H]4C)nc3n2)c1` [Vistusertib], the “Expression rate (%) of calreticulin” value in test [1] (Colorectal cancer, MC38) turned out to be 175%; in test [1] (Renal cancer, RENCA), 341%; in test [1] (Skin cancer (melanoma), B16F10), 145%.

For the origin of these results see patent publication US20230255904A1, “PHARMACEUTICAL COMPOSITION FOR PREVENTING OR TREATING CANCER COMPRISING NAPHTHOQUINONE-BASED COMPOUND AND IMMUNE CHECKPOINT INHIBITOR AS ACTIVE INGREDIENTS” (NADIANBIO LTD., priority 2020, published 2023).
